Entries after “also recorded” stand apart in the source; their conditions may differ.
Legend:
[1] = system: A549 human NSCLC xenograft; experiment: A549 mutant-KRAS lung xenograft model; type: in vivo, athymic Nude-Foxn1nu mice
Description: Method: 2.5×10^6 A549 human NSCLC cells were injected subcutaneously into the right flank of 4-6 week old athymic Nude-Foxn1nu mice (Charles River Laboratories). When tumors reached a size of ˜300 mm3 (Length*Width*Width*0.5), mice were randomized into treatment groups. […] Animals were weighed and tumor volumes were determined by calipering 2 times per week during the study and at termination. Tumor weight was determined at termination. On day 21 Animals were sacrificed by CO2 asphyxiation. Mice were sacrificed 24 hr after the final dose. At time of sacrifice, the tissue samples were collected and processed.

[2] = system: PI3 Kinase signaling pathway in H2122 cells; experiment: Western blot of PI3K pathway signaling in H2122 cells; type: cell-based, human; conditions: 4 hrs
Description: Methods: All the NSCLC cell lines were obtained from ATCC and maintained in RPMI 1640 with 10% fetal bovine serum (Invitrogen). […] Samples were western blotted with indicated total or phosphospecific antibodies followed by a secondary antibody (Cell Signaling Technology, CST) and then incubated with SuperSignal chemiluminescence substrate (Pierce). The blots were then exposed to a Kodak Biomax Light Film. The antibodies against ERK, p-ERK (Thr202/Tyr204), AKT and p-AKT (Ser473), IGF S6K & P-S6K (T389), IRS1 & P-IRS1 (S302) and actin were obtained from CST. Cell cycle analysis was performed in H2122 cells following 24 hr treatment with indicated compounds (see above). One million cells were permiabilized and stained with propidium Iodide (PI) as described by the manufacturer (BD Pharmingen #550825). PI binds to both DNA and RNA, so the latter was removed by digestion with ribonucleases (RNase A). The content of DNA as determined by flow cytometry, can reveal useful information about the cell cycle. Cells in G2 and M phases of the cell cycle have double the DNA content of those in G0 and G1 phases. Cells in S phase have a DNA content lying between these extremes. PI is detected in the orange range of the spectrum using a 562-588 nm band pass filter using a flow cytometer. […] Both compounds act by inhibiting oncogenic signaling through the PI3 Kinase signaling pathway. […]

A549 cell line = experiment: Soft agar colony formation assay, A549; type: cell-based, human; conditions: Ridaforolimus 10 nM, MK-0646 10 ug/ml, no supplemented IGF
Description: (§1) The colony formation assay was performed in the absence of supplemented IGF. […] No significant correlation of KRAS-status and response to the combination was observed.
(§2) Methods: Soft agar assays were conducted in 96 well glass bottom plates (MatriCal). Cells were seeded at a concentration of 3,000-9,000 cells per well in 100 μl RMPI 1640 supplemented with 14% FBS and 0.3% (w/v) SeaPlaque Agarose (Lonza Rockland, Inc) on top of a bottom layer of consisting of the same culture media supplemented with 0.8% agarose. Compounds were added in 100 μl of culture media supplemented after agarose had solidified. Cells were incubated for 7-14 days before staining overnight with LavaCell (Active Motif). Colonies were quantified using an Isocyte™ laser scanning cytometer. […] The RTK status was evaluated in total protein lysates using the P-RTK arrays (R&D biosciences) as described by the manufacturer. The activating mutations in KRAS were identified from published cancer genome data bases (Sanger).

H2122 cell line = experiment: Soft agar colony formation assay, H2122; type: cell-based, human; conditions: Ridaforolimus 10 nM, MK-0646 10 ug/ml, no supplemented IGF
Description: as §1, §2

H1703 = experiment: Soft agar colony formation assay, H1703; type: cell-based, human; conditions: H1703, low expression of IGF1R
Description: as §1, §2

[3] = system: noninfected Sf9 insect cells; experiment: FACScan reactivity of MAb on noninfected Sf9 insect cells; type: binding
Description: For the immunization stage, mice were injected twice, by the subcutaneous route, with 8 μg of recombinant IGF-IR. Three days before the fusion of the cells of the […] with the cells of the murine myeloma Sp2OAg14, the mice were stimulated by an intravenous injection of 3 μg of the recombinant receptor. Fourteen days after the fusion, the supernatants of hybridomas were screened by ELISA, on plates sensitized by recombinant IGF-IR. The hybridomas whose supernatants were found positive were conserved and amplified before being tested on the FACS can so as to verify that the antibodies produced were likewise capable of recognizing native IGF-IR. In order to do this, MCF-7 cells from an estrogen-dependent tumor of the breast overexpressing IGF-IR were incubated with each of the culture supernatants produced by the hybridomas selected in ELISA. […] At this stage of the selection, only the hybridomas secreting MAb at the same time recognizing the recombinant receptor and the native receptor were selected and cloned. The MAb secreted by these hybridomas were produced and then purified before being tested on the FACScan, according to the method described above, on […] expressing IGF-IR or IR in order to eliminate the hybridomas at the same time recognizing the two receptors.

MCF-7 cells = experiment: IGF-I induced proliferation of MCF-7 cells (tritiated thymidine incorporation); type: cell-based; conditions: antibody 10 μg/ml; IGF-I 1 to 50 ng/ml
Text: The cell proliferation is estimated by following on the […] the incorporation of tritiated thymidine by the cells. The results are expressed as a proliferative index.

MCF-7 tumor = experiment: Established MCF-7 tumor model in nude mice; type: in vivo; conditions: 250 μg/dose/mouse twice per week, 5 to 6 weeks
Description: The in vivo selection was carried out in an established tumor model. In order to do this, nude mice received a subcutaneous implant of slow-release estrogen, indispensable for the taking of the tumor in a murine model. Twenty-four hours after implantation of the estrogens, 5.10^6 MCF-7 cells are grafted onto the right flank of the mouse subcutaneously. Five days after this cell graft, the tumors are measurable and batches of 6 mice are formed at random. The treatment of the mice is carried out twice per week, during 5 to 6 weeks, at the dose of 250 μg/dose/mouse. In the control group, the mice are treated in the same fashion with a murine control isotype.

AKT-P = conditions: treatment of patients, O'Reilly et al 2006; cited from earlier work

With `C#Cc1cccc(Nc2ncnc3cc(OCCOC)c(OCCOC)cc23)c1` [Erlotinib] the tumor growth inhibition ([1]; Erlotinib treated group compared to vehicle) was “No significant growth inhibition; also recorded: did not result in any appreciable tumor growth inhibition”.

For `CO[C@H]1C[C@@H]2CC[C@@H](C)[C@@](O)(O2)C(=O)C(=O)N2CCCC[C@H]2C(=O)O[C@H]([C@H](C)C[C@@H]2CC[C@@H](OP(C)(C)=O)[C@H](OC)C2)CC(=O)[C@H](C)/C=C(\C)[C@@H](O)[C@@H](OC)C(=O)[C@H](C)C[C@H](C)/C=C/C=C/C=C/1C` [Ridaforolimus, Dimethyl-Phosphinic Acid C-43 Rapamycin Ester], the “phosphorylation of S6K” value ([2]; Ridaforolimus 10 nM) was “preventing”, the “soft agar growth inhibition” value (A549 cell line) was “only limited single agent activity” and the “soft agar growth inhibition” value (H2122 cell line) was “only limited single agent activity”. The Relative tumor growth ([1]; Rida 0.1mpk, 3 weeks, end of treatment) was 35.01%.

In the case of “MK-0646: humanized antibody binding IGF-1R as well as the IR/IGF-1 hybrid receptor”, the AKT phosphorylation ([2]; MK-0646 10 ng/ml) is reported as “preventing”, the “soft agar growth inhibition” value (A549 cell line) is reported as “only limited single agent activity” and the “soft agar growth inhibition” value (H2122 cell line) is reported as “only limited single agent activity”. The “soft agar single agent sensitivity” value (H1703) was “resistant”.

For “7C10: murine monoclonal antibody secreted by hybridoma deposited at CNCM, IgG1, directed against IGF-IR [Example 7C10]”, the “MFI (Mean fluorescence intensity)” value [3] was 8.6, the “inhibition of proliferation of MCF-7 cells induced by IGF-I” value (MCF-7 cells) was “significantly inhibits” and the “inhibition of tumor growth” value (MCF-7 tumor) was “very significant inhibition”.

In the case of `CO[C@H]1C[C@@H]2CC[C@@H](C)[C@@](O)(O2)C(=O)C(=O)N2CCCC[C@H]2C(=O)O[C@H]([C@H](C)C[C@@H]2CC[C@@H](OCCO)[C@H](OC)C2)CC(=O)[C@H](C)/C=C(\C)[C@@H](O)[C@@H](OC)C(=O)[C@H](C)C[C@H](C)/C=C/C=C/C=C/1C` [RAD001], the “AKT-P level in patients” value (AKT-P) is given as “elevated AKT-P”.

Source: patent US8852590B2, “Compositions and methods for treating cancer” (Merck Sharp & Dohme Corp., priority 2009, dated 2014)
